21 molecules from patent publication US5254565A, “Quinoline derivatives, their production and use” (priority 1988, dated 1993) can be followed below.

SMILES strings stand for the structures.

As usually defined, the inhibition is the relative decrease from the control value, in per cent.

The target in test [1] is T1, Acyl-CoA : cholesterol acyltransferase (ACAT) (Rattus norvegicus, UniProt Q7TQM4).
T1 construct: from the mucosal microsome fraction of the small intestine of male, 6-week old Sprague-Dawley rats; from tissue; host or cells: mucosal microsome fraction of the small intestine of male 6-week old Sprague-Dawley rats, fasted for 20 hours
T1 sequence (Q7TQM4 1-524): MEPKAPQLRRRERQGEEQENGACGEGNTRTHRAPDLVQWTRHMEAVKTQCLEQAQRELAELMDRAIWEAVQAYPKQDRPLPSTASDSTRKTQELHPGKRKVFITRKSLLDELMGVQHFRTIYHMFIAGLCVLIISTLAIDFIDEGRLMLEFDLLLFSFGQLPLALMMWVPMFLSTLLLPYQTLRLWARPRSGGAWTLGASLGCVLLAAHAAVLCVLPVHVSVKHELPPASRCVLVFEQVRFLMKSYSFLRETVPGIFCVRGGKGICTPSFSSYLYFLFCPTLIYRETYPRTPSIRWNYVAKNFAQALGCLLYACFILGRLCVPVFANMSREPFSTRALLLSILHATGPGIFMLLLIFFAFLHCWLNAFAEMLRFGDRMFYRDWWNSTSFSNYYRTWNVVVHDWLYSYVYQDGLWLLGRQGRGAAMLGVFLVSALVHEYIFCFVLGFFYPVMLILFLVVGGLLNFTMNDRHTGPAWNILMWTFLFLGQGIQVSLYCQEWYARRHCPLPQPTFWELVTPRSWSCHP
Kind of test: Acyl-CoA : cholesterol acyltransferase (ACAT) inhibitory activity: production of labeled cholesterol ester from [1-^14 C] oleoyl-CoA and endogenous cholesterol. The class given is biochemical. Particulars: read-out: ACAT Inhibition Rate; for inhibition at 1 µM: 10^-6 M test compound; for inhibition at 0.01 µM: 10^-8 M test compound. How it is done:
1. Acyl-CoA : cholesterol acyltransferase (ACAT) inhibitory activity.
The enzyme ACAT was prepared by the method of Heider et al. described in Journal of Lipid Research, Vol. 24, page 1127 (1982), from the mucosal microsome fraction of the small intestine of male, 6-week old Sprague-Dawley rats which had been fasted for 20 hours.
ACAT activity was calculated by the method of Helgerud et al. described in Journal of Lipid Research, Vol. 22, page 271 (1981), namely, by measuring the amount of the labeled cholesterol ester produced from [1-^14 C] oleoyl-CoA and endogenous cholesterol.
Inhibition rates (%) of the production of the labeled cholesterol ester wherein 10^-6 M-10^-8 M of test compounds were added are shown as an index of ACAT inhibitory activity in Table 1.

The next test concerns plasma cholesterol. In words: Plasma cholesterol lowering activity in cholesterol fed rat. The note with it: diet containing 0.0005% of test compound for 4 days; mean ± standard deviation; control 240 ± 85; *p < 0.05 (t test vs control group); Dose (mg/kg/day): 23 0.40 ± 0.03, 30 0.45 ± 0.02, 32 0.43 ± 0.04. Type of test: in vivo, rat (7-week old, male Sarague Dawley rats). How it is done:
2. Plasma cholesterol lowering activity in cholesterol fed rat.
1% Cholesterol diet (containing 0.5% of cholic acid and 5% of olive oil) was fed to 7-week old, male Sarague Dawley rats for 3 days. The rats were grouped by the plasma cholesterol level, and fed by the same diet containing 0.0005% of a test compound for 4 days. Blood was collected from rats during 8:30-10:00 am at the fed state, and the plasma cholesterol level was measured enzymatically. The amount of a test compound consumed by rats was calculated on the basis of the amount of the diet consumed by the rats.

As for `O=C(Nc1ccc(F)cc1F)Nc1cnc2ccc(Cl)cc2c1-c1ccccc1Cl` [Example 23, 6-Chloro-4-(2-chlorophenyl)-3-[3-(2,4-difluorophenyl)ureido]quinoline], in test [1], the inhibition at 1 µM stood at 98% and the inhibition at 0.01 µM was found to be 34.3%. Further, the inhibition at 0.1 µM in test [1] (10^-7 M test compound) stood at 94.1%. Further, the “Plasma Cholesterol” value in the test on plasma cholesterol worked out at 126 ± 33 mg/dL. For the molecule `Cc1ccc2ncc(NC(=O)Nc3ccc(F)cc3F)c(-c3ccccc3Cl)c2c1` [Example 30, 4-(2-Chlorophenyl)-3-[3-(2,4-difluorophenyl)ureido]-6-methylquinoline], in test [1], the inhibition at 1 µM was determined as 98.5%. The “Plasma Cholesterol” value in the test with plasma cholesterol stood at 143 ± 21 mg/dL.

With `Cc1cc(C)c2ncc(NC(=O)Nc3ccc(F)cc3F)c(-c3ccccc3Cl)c2c1` [Example 32, 4-(2-Chlorophenyl)-3-[3-(2,4-difluorophenyl)ureido]-6,8-dimethylquinoline], in test [1], the inhibition at 1 µM is 98.9% and the inhibition at 0.01 µM turned out to be 52.1%. For the same molecule, in the test on plasma cholesterol, the “Plasma Cholesterol” value stood at 119 ± 46 mg/dL.

On to `Cc1cc(C)c2ncc(NC(=O)Nc3c(F)cc(F)cc3F)c(-c3ccccc3Cl)c2c1` [Example 62, 4-(2-chlorophenyl)-6,8-dimethyl-3-[3-(2,4,6-trifluorophenyl)ureido]quinoline], for which the inhibition at 1 µM in test [1] was determined as 97.3%.

On to `Cc1cc(C)c2c(c1)c(-c1ccccc1Cl)c(NC(=O)Nc1ccc(F)cc1F)c[n+]2[O-]` [Example 63, 4-(2-chlorophenyl)-3-[3-(2,4-difluorophenyl)ureido]-6,8-dimethylquinoline 1-oxide], for which the inhibition at 1 µM in test [1] came to 94.4%. On the same count and under the same terms, for `COc1cc(NC(=O)Nc2cnc3c(C)cc(C)cc3c2-c2ccccc2Cl)cc(OC)c1OC` [Example 64, 4-(2-chlorophenyl)-6,8-dimethyl-3-[3-(3,4,5-trimethoxyphenyl)ureido]-quinoline] the value was 69.7%; for `Cc1cc(C)c2ncc(N(Cc3cc(C(C)(C)C)c(O)c(C(C)(C)C)c3)C(=O)Nc3ccc(F)cc3F)c(-c3ccccc3Cl)c2c1` [Example 67, 3-[1-(3,5-Di-tert-butyl-4-hydroxybenzyl)-3-(2,4-difluorophenyl)ureido]-4-(2-chlorophenyl)-6,8-dimethylquinoline], 90.1%. On to `COc1ccc(-c2c(NC(=O)Nc3ccc(F)cc3F)cnc3ccc(Cl)cc23)c(OC)c1OC` [Example 68, 6-Chloro-3-[3-(2,4-difluorophenyl)ureido]-4-(2,3,4-trimethoxyphenyl)quinoline], for which, in test [1], the inhibition at 1 µM came to 98%. For the molecule `COc1ccc(-c2c(NC(=O)Nc3ccc(F)cc3F)cnc3ccc(Cl)cc23)c(O)c1OC` [Example 69, 6-Chloro-3-[3-(2,4-difluorophenyl)ureido]-4-(2-hydroxy-3,4-dimethoxyphenyl)quinoline], the inhibition at 1 µM in test [1] was found to be 78.2%.

`Cc1cc(C)c2ncc(NC(=O)Nc3c(C)cccc3C)c(-c3ccccc3Cl)c2c1` [Example 70, 4-(2-Chlorophenyl)-6,8-dimethyl-3-[3-(2,6-dimethyl-phenyl)ureido]quinoline]: the inhibition at 1 µM in test [1] was determined as 97.9%. Still for that read-out and setting: then `Cc1cc(C)c2ncc(NC(=O)Nc3c(C(C)C)cccc3C(C)C)c(-c3ccccc3Cl)c2c1` [Example 71, 4-(2-Chlorophenyl)-3-[3-(2,6-diisopropylphenyl)ureido]-6,8-dimethylquinoline], with 98%; and `Cc1cc(C)c2ncc(NC(=O)Nc3ccc([N+](=O)[O-])cc3)c(-c3ccccc3Cl)c2c1` [Example 72, 4-(2-Chlorophenyl)-3-[3-(4-nitrophenyl)ureido]-6,8-dimethylquinoline], with 97.3%; and `Cc1cc2ncc(NC(=O)Nc3ccc(F)cc3F)c(-c3ccccc3Cl)c2cc1C` [Example 73, 4-(2-Chlorophenyl)-3-[3-(2,4-difluorophenyl)ureido]-6,7-dimethylquinoline], with 99.6%. Turning to `Cc1cc2c(-c3ccccc3Cl)c(NC(=O)Nc3ccc(F)cc3F)cnc2c(C)c1C` [Example 74, 4-(2-Chlorophenyl)-3-[3-(2,4-difluorophenyl)ureido]-6,7,8-trimethylquinoline], the inhibition at 1 µM in test [1] amounted to 99.3%. Same read-out and setting: for `O=C(Nc1ccc(F)cc1F)Nc1cnc2ccc(Cl)cc2c1-c1ccc(O)c(O)c1` [Example 75, 6-chloro-3-[3-(2,4-difluorophenylureido]-4-(3,4-dihydroxyphenyl)quinoline.1/2hydrate] the value was 61.2%. On to `CC(=O)Oc1c(C)cc(NC(=O)Nc2cnc3c(C)cc(C)cc3c2-c2ccccc2Cl)cc1C` [Example 77, 3-[3-(4-Acetoxy-3,5-dimethylphenyl)ureido]-4-(2-chlorophenyl)-6,8-dimethylquinoline], for which the inhibition at 1 µM in test [1] was determined as 96.2%. Regarding `CC(=O)Oc1c(C)cc(NC(=O)Nc2cnc3c(C)cc(C)cc3c2-c2ccccc2Cl)c(C)c1C` [Example 78, 3-[3-(4-Acetoxy-2,3,5-trimethylphenyl)ureido]-4-(2-chlorophenyl)-6,8-dimethylquinoline], the inhibition at 1 µM in test [1] is 98.2%.

Turning to `Cc1cc(C)c2ncc(NC(=O)Nc3cc(C(C)C)c(O)c(C(C)C)c3)c(-c3ccccc3Cl)c2c1` [Example 79, 4-(2-chlorophenyl)-3-[3-(4-hydroxy-3,5-diisopropylphenyl)ureido]-6,8-dimethylquinoline], the inhibition at 1 µM in test [1] amounted to 79.9%. Still for that read-out and setting: for `Cc1cc(C)c2ncc(NC(=O)Nc3cc(C)c(O)c(C)c3)c(-c3ccccc3Cl)c2c1` [Example 80, 4-(2-Chlorophenyl)-3-[3-(4-hydroxy-3,5-dimethylphenyl)ureido]-6,8-dimethylquinoline] the value was 95.9%; for `Cc1cc(C)c2ncc(NC(=O)Nc3cc(C)c(O)c(C)c3C)c(-c3ccccc3Cl)c2c1` [Example 81, 4-(2-Chlorophenyl)-3-[3-(4-hydroxy-2,3,5-trimethylphenyl)ureido]-6,8-dimethylquinoline], 97.9%. The same measure, in the same setting: then `Cc1cccc2ncc(NC(=O)Nc3ccc(F)cc3F)c(-c3ccccc3Cl)c12` [Example 83, 4-(2-Chlorophenyl)-3-[3-(2,4-difluorophenyl)ureido]-5-methylquinoline], with 87.3%.
